In publication PMC12406203 (Journal of Medicinal Chemistry, 2025):

Assays:
Assay in all cases: KINOMEscan
Assay type in all cases: binding
YANK3 = target: T1, YANK3 (Homo sapiens, UniProt Q86UX6)
T1 construct: purchased Eurofins DiscoverX, LLC; host or cells: E. coli BL21-derived host (T7 phage) or HEK-293

PIM1 = target: T2, PIM1 (Homo sapiens, UniProt P11309)
T2 construct: purchased Eurofins DiscoverX, LLC; host or cells: E. coli BL21-derived host (T7 phage) or HEK-293

PLK1 = target: T3, PLK1 (Homo sapiens, UniProt P53350)
T3 construct: purchased Eurofins DiscoverX, LLC; host or cells: E. coli BL21-derived host (T7 phage) or HEK-293
T3 sequence (P53350 whole entry): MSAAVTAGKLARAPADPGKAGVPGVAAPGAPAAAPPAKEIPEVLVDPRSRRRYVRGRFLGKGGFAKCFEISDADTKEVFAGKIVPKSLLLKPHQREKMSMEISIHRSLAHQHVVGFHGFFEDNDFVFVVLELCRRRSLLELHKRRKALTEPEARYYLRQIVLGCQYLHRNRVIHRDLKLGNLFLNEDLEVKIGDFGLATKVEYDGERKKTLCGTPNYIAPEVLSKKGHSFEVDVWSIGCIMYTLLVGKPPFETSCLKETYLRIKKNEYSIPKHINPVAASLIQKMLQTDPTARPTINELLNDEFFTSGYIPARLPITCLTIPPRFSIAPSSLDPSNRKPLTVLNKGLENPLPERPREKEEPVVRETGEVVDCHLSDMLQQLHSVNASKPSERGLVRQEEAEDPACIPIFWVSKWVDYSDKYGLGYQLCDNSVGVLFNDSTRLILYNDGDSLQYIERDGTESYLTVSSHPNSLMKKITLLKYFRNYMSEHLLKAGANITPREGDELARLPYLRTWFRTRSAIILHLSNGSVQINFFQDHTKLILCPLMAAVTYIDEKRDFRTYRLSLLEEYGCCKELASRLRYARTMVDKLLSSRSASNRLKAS

PCTK1 = target: T4, PCTK1 (Homo sapiens, UniProt Q00536)
T4 construct: purchased Eurofins DiscoverX, LLC; host or cells: E. coli BL21-derived host (T7 phage) or HEK-293
T4 sequence (Q00536 whole entry): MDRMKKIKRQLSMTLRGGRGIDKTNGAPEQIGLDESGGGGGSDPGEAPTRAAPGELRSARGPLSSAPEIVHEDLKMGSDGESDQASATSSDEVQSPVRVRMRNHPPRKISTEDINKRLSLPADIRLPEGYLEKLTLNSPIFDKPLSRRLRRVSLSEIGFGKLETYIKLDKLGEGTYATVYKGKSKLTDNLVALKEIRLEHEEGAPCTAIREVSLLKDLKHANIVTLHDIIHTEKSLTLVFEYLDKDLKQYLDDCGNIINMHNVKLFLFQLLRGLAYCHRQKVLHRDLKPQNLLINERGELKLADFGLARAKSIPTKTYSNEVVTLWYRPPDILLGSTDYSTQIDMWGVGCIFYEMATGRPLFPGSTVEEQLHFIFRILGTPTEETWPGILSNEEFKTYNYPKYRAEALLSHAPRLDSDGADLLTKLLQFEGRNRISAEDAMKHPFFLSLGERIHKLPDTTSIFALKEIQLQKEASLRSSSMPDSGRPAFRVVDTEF

KIT(V559D,T670I) = target: T5, KIT(V559D,T670I) (Homo sapiens, UniProt P10721, T670I/V559D)
T5 construct: purchased Eurofins DiscoverX, LLC; host or cells: E. coli (BL21-derived, T7 phage) or HEK-293
T5 sequence (P10721 26-976 V559D/T670I): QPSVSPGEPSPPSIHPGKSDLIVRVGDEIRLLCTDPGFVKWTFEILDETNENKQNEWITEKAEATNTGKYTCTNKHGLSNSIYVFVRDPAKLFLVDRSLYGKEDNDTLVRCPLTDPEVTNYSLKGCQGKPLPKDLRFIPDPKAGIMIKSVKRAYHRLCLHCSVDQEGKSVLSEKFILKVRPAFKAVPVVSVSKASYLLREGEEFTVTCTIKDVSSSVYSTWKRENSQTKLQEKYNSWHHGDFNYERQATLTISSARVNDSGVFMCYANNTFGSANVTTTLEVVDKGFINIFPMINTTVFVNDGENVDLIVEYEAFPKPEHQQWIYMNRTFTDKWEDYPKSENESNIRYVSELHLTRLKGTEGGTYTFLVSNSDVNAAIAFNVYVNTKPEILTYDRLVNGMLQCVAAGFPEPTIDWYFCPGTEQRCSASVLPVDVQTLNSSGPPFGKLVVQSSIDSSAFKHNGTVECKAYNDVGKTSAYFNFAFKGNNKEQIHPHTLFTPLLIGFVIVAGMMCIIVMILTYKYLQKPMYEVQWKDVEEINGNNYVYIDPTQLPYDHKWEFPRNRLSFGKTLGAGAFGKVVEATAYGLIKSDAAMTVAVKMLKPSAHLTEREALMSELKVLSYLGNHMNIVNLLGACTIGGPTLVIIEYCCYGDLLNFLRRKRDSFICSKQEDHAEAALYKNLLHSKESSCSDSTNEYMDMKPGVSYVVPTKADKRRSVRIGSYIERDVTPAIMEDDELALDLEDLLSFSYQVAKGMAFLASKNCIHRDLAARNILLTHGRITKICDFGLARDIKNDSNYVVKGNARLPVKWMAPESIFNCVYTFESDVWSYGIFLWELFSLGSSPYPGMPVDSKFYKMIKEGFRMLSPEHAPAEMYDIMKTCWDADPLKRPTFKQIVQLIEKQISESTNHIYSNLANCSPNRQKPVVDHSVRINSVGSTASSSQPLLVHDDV

CDK11 = target: T6, CDK11 (Homo sapiens, UniProt Q9BWU1)
T6 construct: purchased Eurofins DiscoverX, LLC; host or cells: E. coli BL21-derived (T7 phage) or HEK-293
T6 sequence (Q9BWU1 whole entry): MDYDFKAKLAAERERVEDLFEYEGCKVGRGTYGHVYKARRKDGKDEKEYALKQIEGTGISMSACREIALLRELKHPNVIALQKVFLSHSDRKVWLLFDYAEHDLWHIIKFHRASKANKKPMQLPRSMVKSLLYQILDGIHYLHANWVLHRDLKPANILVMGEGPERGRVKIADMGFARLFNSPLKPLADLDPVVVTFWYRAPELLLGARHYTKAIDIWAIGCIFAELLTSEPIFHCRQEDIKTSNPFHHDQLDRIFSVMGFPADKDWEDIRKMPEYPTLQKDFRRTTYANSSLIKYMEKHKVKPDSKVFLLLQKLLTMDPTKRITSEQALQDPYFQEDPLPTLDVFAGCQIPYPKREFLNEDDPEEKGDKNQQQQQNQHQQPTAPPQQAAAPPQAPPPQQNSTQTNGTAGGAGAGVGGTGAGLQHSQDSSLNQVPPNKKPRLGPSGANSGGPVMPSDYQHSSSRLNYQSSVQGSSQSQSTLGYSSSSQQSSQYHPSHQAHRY

EGFR = target: T7, EGFR (Homo sapiens, UniProt P00533)
T7 construct: purchased Eurofins DiscoverX, LLC; host or cells: E. coli (T7 phage) or HEK-293

EGFR(L858R) = target: T8, EGFR(L858R) (Homo sapiens, UniProt P00533, L858R)
T8 construct: purchased Eurofins DiscoverX, LLC; host or cells: E. coli (T7 phage) or HEK-293

DYRK1B = target: T9, DYRK1B (Homo sapiens, UniProt Q9Y463)
T9 construct: purchased Eurofins DiscoverX, LLC; host or cells: E. coli (T7 phage) or HEK-293
T9 sequence (Q9Y463 whole entry): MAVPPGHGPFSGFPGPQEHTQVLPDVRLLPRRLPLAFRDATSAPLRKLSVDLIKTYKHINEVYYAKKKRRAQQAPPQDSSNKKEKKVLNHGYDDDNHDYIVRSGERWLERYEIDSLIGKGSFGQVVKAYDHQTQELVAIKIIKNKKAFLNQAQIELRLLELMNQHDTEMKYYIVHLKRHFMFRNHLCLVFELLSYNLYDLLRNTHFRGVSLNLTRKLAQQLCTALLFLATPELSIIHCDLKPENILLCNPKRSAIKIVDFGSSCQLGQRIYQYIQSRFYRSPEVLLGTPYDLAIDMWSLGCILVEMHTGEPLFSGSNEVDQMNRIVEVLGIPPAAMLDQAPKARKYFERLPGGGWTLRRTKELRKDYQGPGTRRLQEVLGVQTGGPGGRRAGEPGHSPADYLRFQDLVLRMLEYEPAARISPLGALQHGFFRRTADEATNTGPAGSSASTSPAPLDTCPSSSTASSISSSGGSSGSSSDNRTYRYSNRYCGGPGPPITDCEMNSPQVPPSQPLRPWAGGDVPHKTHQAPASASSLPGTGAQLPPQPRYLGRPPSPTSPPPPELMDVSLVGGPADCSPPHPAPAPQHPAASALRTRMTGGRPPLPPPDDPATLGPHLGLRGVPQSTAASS

GSK3B = target: T10, GSK3B (Homo sapiens, UniProt P49841)
T10 construct: purchased Eurofins DiscoverX, LLC; host or cells: E. coli (T7 phage) or HEK-293
T10 sequence (P49841 whole entry): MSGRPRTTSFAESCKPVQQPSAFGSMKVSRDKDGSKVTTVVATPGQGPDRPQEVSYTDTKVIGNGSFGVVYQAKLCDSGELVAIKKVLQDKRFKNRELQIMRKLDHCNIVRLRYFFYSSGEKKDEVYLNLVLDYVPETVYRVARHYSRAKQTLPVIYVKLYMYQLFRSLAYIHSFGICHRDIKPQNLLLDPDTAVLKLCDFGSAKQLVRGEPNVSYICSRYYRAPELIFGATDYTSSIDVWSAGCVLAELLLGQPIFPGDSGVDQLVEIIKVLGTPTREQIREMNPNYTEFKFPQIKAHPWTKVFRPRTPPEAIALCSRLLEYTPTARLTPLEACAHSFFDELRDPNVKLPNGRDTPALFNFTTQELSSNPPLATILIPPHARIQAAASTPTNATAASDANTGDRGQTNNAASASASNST

TGFBR1 = target: T11, TGFBR1 (Homo sapiens, UniProt P36897)
T11 construct: purchased Eurofins DiscoverX, LLC; host or cells: E. coli BL21-derived host (T7 phage) or HEK-293
T11 sequence (P36897 34-503): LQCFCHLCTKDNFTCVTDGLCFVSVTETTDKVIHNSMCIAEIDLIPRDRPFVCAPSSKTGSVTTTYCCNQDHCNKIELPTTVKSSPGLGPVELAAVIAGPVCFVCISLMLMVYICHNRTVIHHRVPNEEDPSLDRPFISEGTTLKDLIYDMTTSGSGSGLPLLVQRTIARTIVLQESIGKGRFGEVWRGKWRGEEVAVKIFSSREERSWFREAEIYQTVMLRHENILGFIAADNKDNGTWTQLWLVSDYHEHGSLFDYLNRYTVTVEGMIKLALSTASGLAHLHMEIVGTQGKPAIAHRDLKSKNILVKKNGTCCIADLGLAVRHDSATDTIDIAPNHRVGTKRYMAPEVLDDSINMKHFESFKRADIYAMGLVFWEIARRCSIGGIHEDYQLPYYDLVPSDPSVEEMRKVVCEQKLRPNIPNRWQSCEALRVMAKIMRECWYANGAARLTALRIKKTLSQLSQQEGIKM

CDK7 = target: T12, CDK7 (Homo sapiens, UniProt P50613)
T12 construct: purchased Eurofins DiscoverX, LLC; host or cells: E. coli BL21-derived (T7 phage) or HEK-293
T12 sequence (P50613 whole entry): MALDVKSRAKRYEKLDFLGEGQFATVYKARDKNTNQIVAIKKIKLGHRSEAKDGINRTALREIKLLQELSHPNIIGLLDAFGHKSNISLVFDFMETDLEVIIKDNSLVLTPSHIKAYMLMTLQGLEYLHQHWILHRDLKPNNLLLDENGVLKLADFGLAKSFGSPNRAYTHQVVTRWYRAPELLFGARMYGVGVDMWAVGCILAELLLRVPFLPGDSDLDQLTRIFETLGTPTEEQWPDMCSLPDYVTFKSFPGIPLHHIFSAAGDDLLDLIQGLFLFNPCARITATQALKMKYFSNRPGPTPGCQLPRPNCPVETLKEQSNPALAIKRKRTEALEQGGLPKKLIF

T2 sequence (P11309 whole entry): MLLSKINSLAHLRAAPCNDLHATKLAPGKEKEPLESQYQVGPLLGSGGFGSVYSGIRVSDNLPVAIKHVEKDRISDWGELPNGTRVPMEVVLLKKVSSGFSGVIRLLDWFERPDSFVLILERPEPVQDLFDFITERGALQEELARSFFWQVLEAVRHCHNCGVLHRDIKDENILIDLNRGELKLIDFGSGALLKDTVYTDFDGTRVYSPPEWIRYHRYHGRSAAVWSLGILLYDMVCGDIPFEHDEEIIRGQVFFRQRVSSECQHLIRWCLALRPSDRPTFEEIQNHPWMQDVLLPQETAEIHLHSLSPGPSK
T1 sequence (Q86UX6 whole entry): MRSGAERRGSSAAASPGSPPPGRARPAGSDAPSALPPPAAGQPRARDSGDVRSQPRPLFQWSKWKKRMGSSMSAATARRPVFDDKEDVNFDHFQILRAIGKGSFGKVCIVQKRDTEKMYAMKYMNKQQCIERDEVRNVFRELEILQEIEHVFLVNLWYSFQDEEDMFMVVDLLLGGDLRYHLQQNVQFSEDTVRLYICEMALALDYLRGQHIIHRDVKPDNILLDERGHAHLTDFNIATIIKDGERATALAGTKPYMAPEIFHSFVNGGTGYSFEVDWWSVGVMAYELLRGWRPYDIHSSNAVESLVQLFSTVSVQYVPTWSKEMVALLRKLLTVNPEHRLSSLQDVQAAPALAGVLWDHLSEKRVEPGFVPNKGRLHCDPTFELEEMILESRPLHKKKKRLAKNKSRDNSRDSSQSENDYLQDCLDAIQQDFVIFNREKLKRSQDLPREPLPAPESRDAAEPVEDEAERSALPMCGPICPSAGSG

CC(C)Cn1ncc2cc(Cc3ccc(F)cc3F)c(C(=O)NCCN(C)C)cc21 [Compound 94, 5-(2,4-Difluorobenzyl)-N-(2-(dimethylamino)ethyl)-1-isobutyl-1H-indazole-6-carboxamide]
RA @ 1000nM (YANK3): 100%
RA @ 10000nM (YANK3): 100%
RA @ 1000nM (PIM1): 95%
RA @ 10000nM (PIM1): 100%
RA @ 1000nM (PLK1): 100%
RA @ 10000nM (PLK1): 100%
RA @ 1000nM (PCTK1): 96%
RA @ 10000nM (PCTK1): 92%
RA @ 1000nM (KIT(V559D,T670I)): 100%
RA @ 10000nM (KIT(V559D,T670I)): 100%
RA @ 1000nM (CDK11): 100%
RA @ 10000nM (CDK11): 89%
RA @ 1000nM (EGFR): 98%
RA @ 10000nM (EGFR): 69%
RA @ 1000nM (EGFR(L858R)): 100%
RA @ 10000nM (EGFR(L858R)): 66%
RA @ 1000nM (DYRK1B): 100%
RA @ 10000nM (DYRK1B): 85%
RA @ 1000nM (GSK3B): 91%
RA @ 10000nM (GSK3B): 97%
RA @ 1000nM (TGFBR1): 100%
RA @ 10000nM (TGFBR1): 100%
RA @ 1000nM (CDK7): 79%
RA @ 10000nM (CDK7): 86%

CN(C)CCNC(=O)c1cc2c(cnn2CC2CCCCC2)cc1Cc1ccc(F)cc1F [Compound 95, 1-(Cyclohexylmethyl)-5-(2,4-difluorobenzyl)-N-(2-(dimethylamino)ethyl)-1H-indazole-6-carboxamide]
RA @ 1000nM (YANK3): 100%
RA @ 10000nM (YANK3): 100%
RA @ 1000nM (PIM1): 100%
RA @ 10000nM (PIM1): 94%
RA @ 1000nM (PLK1): 100%
RA @ 10000nM (PLK1): 100%
RA @ 1000nM (PCTK1): 87%
RA @ 10000nM (PCTK1): 79%
RA @ 1000nM (KIT(V559D,T670I)): 47%
RA @ 10000nM (KIT(V559D,T670I)): 94%
RA @ 1000nM (CDK11): 92%
RA @ 10000nM (CDK11): 100%
RA @ 1000nM (EGFR): 100%
RA @ 10000nM (EGFR): 100%
RA @ 1000nM (EGFR(L858R)): 100%
RA @ 10000nM (EGFR(L858R)): 100%
RA @ 1000nM (DYRK1B): 95%
RA @ 10000nM (DYRK1B): 100%
RA @ 1000nM (GSK3B): 100%
RA @ 10000nM (GSK3B): 80%
RA @ 1000nM (TGFBR1): 100%
RA @ 10000nM (TGFBR1): 100%
RA @ 1000nM (CDK7): 88%
RA @ 10000nM (CDK7): 77%
